# Measured values: patent publication EP1180991B1, “GAMBOGIC ACID DERIVATIVES AS ACTIVATORS OF CASPASES AND INDUCERS OF APOPTOSIS” (Cytovia, Inc., priority 1999, dated 2000)
# Legend:
# [1] = tested on: T47D cells; experiment: Morphological change of cells, phase contrast (Example 93); format: cell-based, human; conditions: 2.5 µM
# Procedure: In addition, apoptotic adherent cells in culture lose their ability to remain attached to the culture dish. The ability of gambogic acid to trigger these morphological changes in T47D cells was investigated.
# 60 mm culture dishes were seeded with 750,000. T47D cells and the cultures were incubated under normal growth conditions (complete medium with 10% FBS) for 24 h. The cells were then treated with 2.5 µM of gambogic acid and further incubated under normal growth conditions for 2 or 6 h. Morphological changes were documented by photographing the cells under phase contrast illumination.
# [2] = tested on: HL-60 cells; experiment: PARP cleavage, western blot (Example 98); format: cell-based, human; conditions: 2.5 µM, 2 h (Fig. 5B)
# Procedure: (§1) Cleavage of the enzyme poly(ADP)ribose polymerase (PARP) by caspase-3 and related proteases is considered to be one of the molecular hallmarks of caspase-mediated apoptosis. Therefore, the ability of gambogic acid to induce PARP cleavage in four different human tumor cell lines (Jurkat cells, HL-60 cells, T47D cells and PC3 cells) was determined.
# (§2) Cells were cultured in complete growth medium containing 10% FBS and treated with gambogic acid at concentrations of 2.5 µM or 5 µM for 2 to 4 h. Control cultures were treated with a drug vehicle (DMSO), or the well-characterized apoptosis inducer, staurosporine. At the end of the apoptosis induction period, the cells were harvested, washed once with PBS, quick-frozen on dry ice, and stored at -80° C. The cells were then lysed in a standard immunoblotting lysis buffer and samples of the lysates were electrophoresed on 4% to 20% gradient polyacrylamide gels. The proteins in the gels were then transferred to PVDF membranes and probed with a commercially-available rabbit polyclonal antibody to PARP.
# [3] = tested on: Jurkat cells; experiment: PARP cleavage, western blot (Example 98); format: cell-based, human; conditions: 2.5 µM, 2 h (Fig. 5A)
# Procedure: as §1, §2
# [4] = tested on: Jurkat T leukemia cells; experiment: Apoptotic morphology, phase-contrast microscope (Example 95); format: cell-based, human; conditions: 10 µM
# Procedure: Jurkat T leukemia cells were grown in RPMI 1640 media (Life Technologies, Inc.) + 10% FCS (Sigma Chemical Company) in a 5% CO2-95% humidity incubator at 37° C, and maintained at a cell density between 4 and 8 x 10^5 cells/ml. Cells were harvested at 200xg and resuspended at 1-2 x 10^6 cells/ml into RPMI 1640 media + 10% FCS, and 3 ml of the cells was dispensed in each of three wells of a 6-well plate. One of the wells was treated with 10 µM caspase inhibitor cbz-Val-Asp-fink (Cytovia, Inc.; WO99/18781) and the plate was incubated at 37° C in a 5% CO2-95% humidity incubator for 1 h prior to addition of gambogic acid. The wells with and without the caspase inhibitor were treated with 10 µM gambogic acid. The third well was treated with solvent (control cells). The plate was incubated at 37° C in a 5% CO2-95% humidity incubator.
# At 30 min. after addition of gambogic acid an aliquot of cells from each well was taken into the capillary slides and observed under a phase-contrast microscope.
# [5] = tested on: T47D cells; experiment: PARP cleavage, western blot (Example 98); format: cell-based, human
# Procedure: as §1
# as §2, with “Cells were cultured in complete growth medium containing 10% FBS and treated with gambogic acid at concentrations of 2.5 µM or 5 µM for 2 to 4 h.” left out
# [6] = tested on: PC3 cells; experiment: PARP cleavage, western blot (Example 98); format: cell-based, human
# Procedure: as §1
# as §2, with “Cells were cultured in complete growth medium containing 10% FBS and treated with gambogic acid at concentrations of 2.5 µM or 5 µM for 2 to 4 h.” left out
# [7] = tested on: HeLa; conditions: Asano et al. 1996; cited from earlier work
# [8] = tested on: ZR-75-1; experiment: Caspase cascade activation assay (Example 90); format: cell-based, human; conditions: ZR-75-1, 24 h incubation
# Procedure: (§3) Human breast cancer cell lines T-47D and ZR-75-1, human prostate cancer cell line PC-3, human leukemia cancer cell line HL-60 and human non-transformed fibroblast cell line MRC-5 cells were grown according to media component mixtures designated by The American Type Culture Collection + 10% FCS (Life Technologies, Inc.), in a 5% CO2 -95% humidity incubator at 37° C. T-47D, ZR-75-1 and PC-3 cells were maintained at a cell density between 30 and 80% confluency and for HL-60 at a cell density of 0.1 to 0.6 x 10^6 cells/ml. Cells were harvested at 600xg and resuspended at 0.65 x 10^6 cells/ml into appropriate media + 10% FCS. […] The samples were mixed by agitation and incubated at room temperature.
# (§4) The EC50 (nM) was determined by a sigmoidal dose-response calculation (Prism 2.0, GraphPad Software Inc.). Caspase Activity and Potency
# [9] = tested on: MRC-5; experiment: Caspase cascade activation assay (Example 90); format: cell-based, human; conditions: MRC-5 non-transformed fibroblasts, 24 h incubation
# Procedure: as §3, §4
# [10] = tested on: HL-60; experiment: Caspase cascade activation assay (Example 90); format: cell-based, human; conditions: HL-60, 24 h incubation
# Procedure: as §3, §4
# [11] = tested on: T-47D; experiment: Caspase cascade activation assay (Example 90); format: cell-based, human; conditions: T-47D, 24 h incubation
# Procedure: as §3, §4
# [12] = tested on: PC-3; experiment: Caspase cascade activation assay (Example 90); format: cell-based, human; conditions: PC-3, 24 h incubation
# Procedure: as §3, §4
# [13] = tested on: KB-V1; conditions: Lin et al. 1993; cited from earlier work
# [14] = tested on: HEL cells; conditions: Asano et al. 1996; cited from earlier work
# [15] = Homo sapiens, caspase activation, read-out: EC50
# [16] = 0.16 to 10 µM final, net RFU ratio to control
structure (smiles),measurement,setting,value
"CC(C)=CCC[C@]1(C)C=Cc2c(O)c3c(c(CC=C(C)C)c2O1)O[C@]12C(=C[C@@H]4C[C@H]1C(C)(C)O[C@@]2(C/C=C(/C)C(=O)O)C4=O)C3=O [Example 1, Gambogic Acid]",apoptotic morphological changes,[1]; 2 h (Fig. 1B),"many of the cells have taken on a rounded, phase-bright morphology"
same,apoptotic morphological changes,[1]; 6 h (Fig. 1C),most of the cells in the culture are rounded up and are beginning to detach from the dish
same,PARP cleavage,[2],almost complete PARP cleavage
same,PARP cleavage,[3],almost complete PARP cleavage
same,apoptotic morphology,[4]; 30 min (Fig. 3B),blebbing and cellular fragmentation
same,apoptotic morphology in the presence of caspase inhibitor,"[4]; 30 min, with 10 µM caspase inhibitor cbz-Val-Asp-fink (Fig. 3C)",prevented the morphological changes
same,PARP cleavage,"[5]; 2.5 µM and 5 µM, 4 h (Fig. 5C)",almost complete PARP cleavage
same,PARP cleavage,"[5]; 2.5 µM, 2 h (Fig. 5C)",moderate induction of PARP cleavage
same,PARP cleavage,"[5]; 5 µM, 2 h (Fig. 5C)",almost complete PARP cleavage
same,PARP cleavage,"[6]; 2.5 µM and 5 µM, 2 h (Fig. 5D)",neither concentration (2.5 µM and 5 µM) of drug was effective
same,PARP cleavage,"[6]; 5 µM, 4 h (Fig. 5D)",a moderate amount of PARP cleavage product
same,cytotoxicity,[7],cytotoxic
same,EC50,[8]; [15],1400 nM
same,caspase activity (Ratio),[8]; [16],11.9
same,EC50,"[9]; Homo sapiens, MRC5, caspase activation, read-out: EC50",1410 nM
same,caspase activity (Ratio),[9]; [16],17.8
same,caspase activity (Ratio),[10]; [16],6.3
same,EC50,[10]; [15],400 nM
same,EC50,"[11]; Homo sapiens, T47D, caspase activation, read-out: EC50",560 nM
same,caspase activity (Ratio),[11]; [16],13.6
same,EC50,[12]; [15],1500 nM
same,caspase activity (Ratio),[12]; [16],2.1
same,cytotoxicity,[13],cytotoxic
same,cytotoxicity,[14],cytotoxic
